Measured values as given in PubChem BioAssay AID2060600 (Molecular Pharmacology Branch, DTP, NCI, 2025).
pIC50: −log10 of the molar value. Where “and” joins values, the source holds several entries; their conditions need not be identical. Identical values can stand only once.

Tested on: 996289-038-R-J1-PDC complex spheroid viability
Assay: Anticancer human tumor 996289-038-R-J1-PDC patient-derived colon adenocarcinoma cell line growth inhibition [CLK]
Details: for viability, T/C: stronger effect = lower value
Outline: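 Multi-cell-type spheroids combined patient-derived tumor cells with HUVEC endothelial cells and human mesenchymal stem cells. Paired agents were dosed in half-log steps down from about clinical Cmax, or from 10 microM where Cmax was unknown.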

[1] = curve of first compound, second compound 0.0316 µM
[2] = curve of first compound, second compound 0.1 µM
[3] = curve of first compound, second compound 0.316 µM
[4] = curve of first compound, second compound 1 µM
[5] = curve of first compound, second compound 3.16 µM
[6] = curve of first compound, second compound 10 µM
[7] = second compound 0.0316 µM, first compound 0.0316 µM
[8] = second compound 0.0316 µM, first compound 0.1 µM
[9] = second compound 0.0316 µM, first compound 0.316 µM
[10] = second compound 0.0316 µM, first compound 1 µM
[11] = second compound 0.0316 µM, first compound 3.16 µM
[12] = second compound 0.0316 µM, first compound 10 µM
[13] = second compound 0.1 µM, first compound 0.0316 µM
[14] = second compound 0.1 µM, first compound 0.1 µM
[15] = second compound 0.1 µM, first compound 0.316 µM
[16] = second compound 0.1 µM, first compound 1 µM
[17] = second compound 0.1 µM, first compound 3.16 µM
[18] = second compound 0.1 µM, first compound 10 µM
[19] = second compound 0.316 µM, first compound 0.0316 µM
[20] = second compound 0.316 µM, first compound 0.1 µM
[21] = second compound 0.316 µM, first compound 0.316 µM
[22] = second compound 0.316 µM, first compound 1 µM
[23] = second compound 0.316 µM, first compound 3.16 µM
[24] = second compound 0.316 µM, first compound 10 µM
[25] = second compound 1 µM, first compound 0.0316 µM
[26] = second compound 1 µM, first compound 0.1 µM
[27] = second compound 1 µM, first compound 0.316 µM
[28] = second compound 1 µM, first compound 1 µM
[29] = second compound 1 µM, first compound 3.16 µM
[30] = second compound 1 µM, first compound 10 µM
[31] = second compound 3.16 µM, first compound 0.0316 µM
[32] = second compound 3.16 µM, first compound 0.1 µM
[33] = second compound 3.16 µM, first compound 0.316 µM
[34] = second compound 3.16 µM, first compound 1 µM
[35] = second compound 3.16 µM, first compound 3.16 µM
[36] = second compound 3.16 µM, first compound 10 µM
[37] = second compound 10 µM, first compound 0.0316 µM
[38] = second compound 10 µM, first compound 0.1 µM
[39] = second compound 10 µM, first compound 0.316 µM
[40] = second compound 10 µM, first compound 1 µM
[41] = second compound 10 µM, first compound 3.16 µM
[42] = second compound 10 µM, first compound 10 µM
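Also: spheroids exposed to the agents for 7 days before readout.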

`CC1COCCN1c1cc(C2(S(C)(=N)=O)CC2)nc(-c2ccnc3[nH]ccc23)n1` (stereo not given) + CNC(=O)c1ccc(Nc2nc(OC3CCCC3)c3c(-c4ccc5nc(C)oc5c4)c[nH]c3n2)c(OC)c1 showed a pIC50 [1] of less than 5.00, a pIC50 [2] of less than 5.00 and a pIC50 [3] of less than 5.00. It also gave a pIC50 [4] of 5.44, a pIC50 [5] of 5.55 and a pIC50 [6] of 5.67. The viability, T/C [7] was 116%, the viability, T/C [8] was 126% and the viability, T/C [9] was 118%. For the same compound, the viability, T/C [10] was 117%, the viability, T/C [11] was 122% and the viability, T/C [12] was 100%. It also gave a viability, T/C [13] of 129%, a viability, T/C [14] of 135% and a viability, T/C [15] of 129%. The viability, T/C [16] was 122%, the viability, T/C [17] was 121% and the viability, T/C [18] was 88.1%. The viability, T/C [19] was 84.8%, the viability, T/C [20] was 83% and the viability, T/C [21] was 79.4%. It also gave a viability, T/C [22] of 73.2%, a viability, T/C [23] of 73.8% and a viability, T/C [24] of 58.5%. It also gave a viability, T/C [25] of 70.3%, a viability, T/C [26] of 71.5% and a viability, T/C [27] of 68.8%. For the same compound, the viability, T/C [28] was 57.5%, the viability, T/C [29] was 54.2% and the viability, T/C [30] was 36.9%. It also gave a viability, T/C [31] of 68.5%, a viability, T/C [32] of 60.9% and a viability, T/C [33] of 55.8%. For the same compound, the viability, T/C [34] was 64%, the viability, T/C [35] was 46% and the viability, T/C [36] was 39.8%. For the same compound, the viability, T/C [37] was 59.3%, the viability, T/C [38] was 55.7% and the viability, T/C [39] was 57%. It also gave a viability, T/C [40] of 53.7%, a viability, T/C [41] of 48.1% and a viability, T/C [42] of 31%.

`C=CC(=O)Nc1cc(Nc2nccc(-c3cn(C)c4ccccc34)n2)c(OC)cc1N(C)CCN(C)C` + CNC(=O)c1ccc(Nc2nc(OC3CCCC3)c3c(-c4ccc5nc(C)oc5c4)c[nH]c3n2)c(OC)c1 was tested, and the pIC50 [1] was less than 6.52, the pIC50 [2] was less than 6.52 and the pIC50 [3] was less than 6.52. It also gave a pIC50 [4] of 6.86, a pIC50 [5] of 7.04 and a pIC50 [6] of 7.24. The viability, T/C (second compound 0.0316 µM, first compound 0.000949 µM) was 118%, the viability, T/C (second compound 0.0316 µM, first compound 0.003 µM) was 123% and the viability, T/C (second compound 0.0316 µM, first compound 0.00949 µM) was 112%. The viability, T/C (second compound 0.0316 µM, first compound 0.03 µM) was 117%, the viability, T/C (second compound 0.0316 µM, first compound 0.0949 µM) was 113% and the viability, T/C (second compound 0.0316 µM, first compound 0.3 µM) was 85.8%. The viability, T/C (second compound 0.1 µM, first compound 0.000949 µM) was 109%, the viability, T/C (second compound 0.1 µM, first compound 0.003 µM) was 124% and the viability, T/C (second compound 0.1 µM, first compound 0.00949 µM) was 106%. For the same compound, the viability, T/C (second compound 0.1 µM, first compound 0.03 µM) was 109%, the viability, T/C (second compound 0.1 µM, first compound 0.0949 µM) was 110% and the viability, T/C (second compound 0.1 µM, first compound 0.3 µM) was 77.4%. It also gave a viability, T/C (second compound 0.316 µM, first compound 0.000949 µM) of 74%, a viability, T/C (second compound 0.316 µM, first compound 0.003 µM) of 74.3% and a viability, T/C (second compound 0.316 µM, first compound 0.00949 µM) of 72.7%. The viability, T/C (second compound 0.316 µM, first compound 0.03 µM) was 69.4%, the viability, T/C (second compound 0.316 µM, first compound 0.0949 µM) was 68.8% and the viability, T/C (second compound 0.316 µM, first compound 0.3 µM) was 52.5%. For the same compound, the viability, T/C (second compound 1 µM, first compound 0.000949 µM) was 69.7%, the viability, T/C (second compound 1 µM, first compound 0.003 µM) was 67.5% and the viability, T/C (second compound 1 µM, first compound 0.00949 µM) was 62%. For the same compound, the viability, T/C (second compound 1 µM, first compound 0.03 µM) was 61.6%, the viability, T/C (second compound 1 µM, first compound 0.0949 µM) was 53.2% and the viability, T/C (second compound 1 µM, first compound 0.3 µM) was 43.1%. It also gave a viability, T/C (second compound 3.16 µM, first compound 0.000949 µM) of 64.2%, a viability, T/C (second compound 3.16 µM, first compound 0.003 µM) of 60.8% and a viability, T/C (second compound 3.16 µM, first compound 0.00949 µM) of 56.5%. The viability, T/C (second compound 3.16 µM, first compound 0.03 µM) was 53%, the viability, T/C (second compound 3.16 µM, first compound 0.0949 µM) was 53.1% and the viability, T/C (second compound 3.16 µM, first compound 0.3 µM) was 43.8%. It also gave a viability, T/C (second compound 10 µM, first compound 0.000949 µM) of 60.9%, a viability, T/C (second compound 10 µM, first compound 0.003 µM) of 55.9% and a viability, T/C (second compound 10 µM, first compound 0.00949 µM) of 55%. The viability, T/C (second compound 10 µM, first compound 0.03 µM) was 54.7%, the viability, T/C (second compound 10 µM, first compound 0.0949 µM) was 47.4% and the viability, T/C (second compound 10 µM, first compound 0.3 µM) was 38.2%.

`CC(Nc1ccc2c(c1)OCCn1cc(N3C(=O)OCC3C(F)F)nc1-2)C(N)=O` (stereo not given) was tested, and the viability, T/C (compound 0.0316 µM) was 97.5% and 100%, the viability, T/C (compound 0.1 µM) was 78.5% and 75.5% and the viability, T/C (compound 0.316 µM) was 72.1% and 74.9%. The viability, T/C (compound 1 µM) was 63.5% and 60.5%, the viability, T/C (compound 3.16 µM) was 54.1% and 53.5% and the viability, T/C (compound 10 µM) was 46.5% and 44.3%. The pIC50 (curve of compound) was 5.22 and 5.35.

In the case of `NC(=O)C(=Cn1cnc(-c2cc(C(F)(F)F)cc(C(F)(F)F)c2)n1)c1cncnc1`, the viability, T/C (compound 0.00949 µM) was 83% and 87.8%, the viability, T/C (compound 0.03 µM) was 63% and 63.2% and the viability, T/C (compound 0.0949 µM) was 49.2% and 52.4%. For the same compound, the viability, T/C (compound 0.3 µM) was 28.8% and 28.9%, the viability, T/C (compound 0.949 µM) was 19.9% and 22.7% and the viability, T/C (compound 3 µM) was 18.5% and 21.2%. The pIC50 (curve of compound) was 7.13 and 7.10.

`CC(CO)NC(=O)c1cc(-c2ccc(Cl)cc2)nn(-c2cnn(C)c2)c1=O` (stereo not given) + CNC(=O)c1ccc(Nc2nc(OC3CCCC3)c3c(-c4ccc5nc(C)oc5c4)c[nH]c3n2)c(OC)c1 gave a pIC50 [1] of less than 5.00, a pIC50 [2] of less than 5.00 and a pIC50 [3] of less than 5.00. It also gave a pIC50 [4] of less than 5.00, a pIC50 [5] of less than 5.00 and a pIC50 [6] of less than 5.00. For the same compound, the viability, T/C [7] was 117%, the viability, T/C [8] was 111% and the viability, T/C [9] was 108%. It also gave a viability, T/C [10] of 117%, a viability, T/C [11] of 109% and a viability, T/C [12] of 99.6%. It also gave a viability, T/C [13] of 131%, a viability, T/C [14] of 113% and a viability, T/C [15] of 116%. For the same compound, the viability, T/C [16] was 95.4%, the viability, T/C [17] was 101% and the viability, T/C [18] was 83.7%. The viability, T/C [19] was 79.8%, the viability, T/C [20] was 76.9% and the viability, T/C [21] was 73.2%. The viability, T/C [22] was 71.4%, the viability, T/C [23] was 72.7% and the viability, T/C [24] was 68.9%. The viability, T/C [25] was 64.2%, the viability, T/C [26] was 63.7% and the viability, T/C [27] was 57.8%. The viability, T/C [28] was 57.5%, the viability, T/C [29] was 57.5% and the viability, T/C [30] was 49%. The viability, T/C [31] was 58.2%, the viability, T/C [32] was 57.6% and the viability, T/C [33] was 55.3%. The viability, T/C [34] was 54.7%, the viability, T/C [35] was 56.9% and the viability, T/C [36] was 48.3%. The viability, T/C [37] was 52.4%, the viability, T/C [38] was 56.9% and the viability, T/C [39] was 56.2%. The viability, T/C [40] was 58.5%, the viability, T/C [41] was 55.5% and the viability, T/C [42] was 44.8%.
